This is an account of results in patent US8378172B2, “Methods using acyl-CoA binding proteins to enhance low-temperature tolerance in genetically modified plants” (The University of Hong Kong, priority 2009, dated 2013).

The target of experiment [1] is T1, (His)6-ACBP6 (Arabidopsis thaliana, UniProt P57752).
T1 construct: made in house; host or cells: Escherichia coli
In words: in vitro filter-binding assay, (His)6-ACBP6/lipid binding on nitrocellulose. The following applies: 1 μg/ml (His)6-ACBP6. As to the method:
A, Purification of (His)6-ACBP6 recombinant protein. […] M, marker; lane 1, flow through fraction; lane 2, washing fraction at pH 6.3; lanes 3-8, eluted fractions at pH 5.9; lanes 9-12, eluted fractions at pH 4.5. B, (His)6-ACBP6/lipid binding on filters. Various concentrations (0, 12.5, 25.0 and 32.5 μM) of lipids (PA, PC and LysoPC) were spotted onto nitrocellulose and incubated with 1 μg/ml of purified (His)6-ACBP6 protein. The (His)6-ACBP6/lipid binding was detected by immunoblotting with HRP-conjugated anti-penta-His antibodies. C, Effect of PC acyl species on (His)6-ACBP6/lipid binding. Fifty μM lipid (PC, 16:0-PC, 18:0-PC, 18:1-PC, 18:2-PC or DMPC) spotted onto nitrocellulose was incubated with 1 μg/ml of purified (His)6-ACBP6 protein. The (His)6-ACBP6/lipid binding was detected by immunoblotting with HRP-conjugated anti-penta-His antibodies. […]
Expression and purification of His-tagged ACBP6 recombinant protein was carried out according to Xiao et al. (Plant J 54: 141-151, 2008). […] Following incubated with the HRP-conjugated anti-penta-His antibodies (1:2,000; QIAGEN, Cat. No. 1014922) for 1 h at RT, the filter was again washed 3 times with TTBS, each for 10 min and then detected with the ECL Western Blotting Detection Kit (Amersham) following the manufacturer's protocols.
T1 sequence (P57752 other isoform, or with tags, fused parts or gaps): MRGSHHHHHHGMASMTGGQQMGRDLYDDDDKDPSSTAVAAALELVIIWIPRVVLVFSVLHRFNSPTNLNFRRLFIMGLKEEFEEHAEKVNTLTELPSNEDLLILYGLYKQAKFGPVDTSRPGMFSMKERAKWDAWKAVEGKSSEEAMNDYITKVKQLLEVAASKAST

A further experiment concerns the target T2, (His)6-ACBP5 (Arabidopsis thaliana, UniProt Q8RWD9).
T2 construct: (His)6
T2 sequence (Q8RWD9 1-648): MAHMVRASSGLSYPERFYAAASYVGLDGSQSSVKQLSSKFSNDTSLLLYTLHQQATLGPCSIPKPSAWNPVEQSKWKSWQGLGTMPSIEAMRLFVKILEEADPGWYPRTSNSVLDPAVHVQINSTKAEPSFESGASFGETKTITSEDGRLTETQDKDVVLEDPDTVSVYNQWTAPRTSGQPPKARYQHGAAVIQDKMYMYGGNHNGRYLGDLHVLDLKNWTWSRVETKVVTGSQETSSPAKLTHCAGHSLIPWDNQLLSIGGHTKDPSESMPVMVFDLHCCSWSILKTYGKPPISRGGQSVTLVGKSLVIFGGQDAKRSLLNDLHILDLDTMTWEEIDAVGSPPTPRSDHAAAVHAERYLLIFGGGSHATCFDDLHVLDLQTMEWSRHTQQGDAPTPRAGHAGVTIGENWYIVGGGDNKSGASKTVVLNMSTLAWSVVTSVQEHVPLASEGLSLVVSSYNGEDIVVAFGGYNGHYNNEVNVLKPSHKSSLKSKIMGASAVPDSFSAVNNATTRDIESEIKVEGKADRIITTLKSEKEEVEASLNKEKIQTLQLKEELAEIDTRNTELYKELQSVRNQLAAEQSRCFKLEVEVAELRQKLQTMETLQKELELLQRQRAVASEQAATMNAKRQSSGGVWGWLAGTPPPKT
The following applies: recombinant (His)6-ACBP5; read-out: dissociation constant (Kd) in binding oleoyl-CoA esters; cited from earlier work.

Experiment [2] deals with T3, (His)6-ACBP6 (Arabidopsis thaliana, UniProt P57752).
T3 construct: (His)6
T3 sequence (P57752 1-92): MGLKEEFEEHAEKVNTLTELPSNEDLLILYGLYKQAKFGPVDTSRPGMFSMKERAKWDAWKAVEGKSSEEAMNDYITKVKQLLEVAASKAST
The following applies: recombinant (His)6-ACBP6; read-out: dissociation constant (Kd) in binding oleoyl-CoA esters; cited from earlier work.

The target in a further experiment is T4, (His)6-ACBP4 (Arabidopsis thaliana, UniProt Q9MA55).
T4 construct: (His)6
T4 sequence (Q9MA55 1-668): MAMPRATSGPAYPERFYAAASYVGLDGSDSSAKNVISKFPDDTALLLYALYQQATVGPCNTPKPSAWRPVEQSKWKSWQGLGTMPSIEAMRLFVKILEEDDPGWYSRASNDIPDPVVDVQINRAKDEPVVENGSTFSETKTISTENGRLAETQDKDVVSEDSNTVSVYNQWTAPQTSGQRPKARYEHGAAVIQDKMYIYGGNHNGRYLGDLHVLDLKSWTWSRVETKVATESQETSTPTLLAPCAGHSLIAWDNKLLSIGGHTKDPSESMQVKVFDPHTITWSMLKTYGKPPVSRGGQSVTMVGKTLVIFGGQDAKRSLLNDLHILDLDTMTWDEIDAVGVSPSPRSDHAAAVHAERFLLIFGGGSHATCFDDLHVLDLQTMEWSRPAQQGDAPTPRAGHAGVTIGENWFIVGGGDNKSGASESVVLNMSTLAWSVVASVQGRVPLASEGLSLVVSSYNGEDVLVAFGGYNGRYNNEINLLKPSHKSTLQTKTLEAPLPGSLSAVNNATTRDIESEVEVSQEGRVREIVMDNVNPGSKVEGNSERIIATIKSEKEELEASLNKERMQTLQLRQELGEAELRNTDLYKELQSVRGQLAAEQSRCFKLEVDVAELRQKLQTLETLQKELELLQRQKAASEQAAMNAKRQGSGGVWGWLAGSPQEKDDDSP
The following applies: recombinant (His)6-ACBP4; read-out: dissociation constant (Kd) in binding oleoyl-CoA esters; cited from earlier work.

As to “1,2-diacyl-sn-glocero-3-phosphocholine [PC]”, the “(His)6-ACBP6/lipid binding on filters” value on (His)6-ACBP6 [1] (0, 12.5, 25.0 and 32.5 μM lipid spotted, FIG. 7B) is given as “binds”.
For `CCCCCCCC/C=C\CCCCCCCC(=O)SCCNC(=O)CCNC(=O)[C@H](O)C(C)(C)COP(=O)(O)OP(=O)(O)OC[C@H]1O[C@@H](n2cnc3c(N)ncnc32)[C@H](O)[C@@H]1OP(=O)(O)O` [oleoyl-CoA], the Kd at (His)6-ACBP5 is 0.68 µM; at (His)6-ACBP6 [2], 3.7 µM; at (His)6-ACBP4 it was 0.56 µM.
Consider `CCCCCCCCCCCCCC(=O)OC[C@H](COP(=O)([O-])OCC[N+](C)(C)C)OC(=O)CCCCCCCCCCCCC` [DMPC, 1,2-dimyristoyl-sn-glycero-3-phosphocholine], for which the “effect of PC acyl species on (His)6-ACBP6/lipid binding” value at (His)6-ACBP6 [1] (50 μM lipid spotted, FIG. 7C) is on record as “did not bind”.

By Kd is commonly meant the constant that tells how readily two partners part at equilibrium.
